# Assay results reported in patent publication US7495027B2, “3-aryl-4-hydroxyfuranone compounds and the human and animal health use thereof” (Wyeth, priority 2003, dated 2009).
# Read-outs that look alike come from different tables or passages of the source.
# Experiments:
# enterococci = test: Minimum inhibitory concentration, microdilution broth method, enterococci; assay type: cell-based; settings: Enterococcus faecalis, Mueller-Hinton broth, 18-22 hours at 35° C.
# Method: (§1) Evaluation of the Minimum Inhibitory Concentration of Test Compounds Against A Variety of Bacterial Strains
# (§2) In this evaluation the minimal inhibitory concentration (MIC) of test compounds against Gram positive and Gram negative bacteria is performed using the microdilution broth method as recommended by the National Committee for Clinical Laboratory Standards (Approved Standards M7-A5 2000). Mueller-Hinton broth is used for the enterobacteriaceae, staphylococci and enterococci. Streptococci are also tested in Mueller-Hinton broth supplemented with 5% horse blood (LHB). Test organisms include recent clinical isolates that are resistant to methicillin, penicillin and/or vancomycin. […].
# [1] = molecular target: E. coli Uridine-diphosphate-N-acetvimuramoyl: L-alanine lipase, MurC (Escherichia coli, UniProt P17952); test: Inhibitory activity against MurC (E. coli); assay type: biochemical
# Sequence of E. coli Uridine-diphosphate-N-acetvimuramoyl: L-alanine lipase, MurC (P17952 whole entry): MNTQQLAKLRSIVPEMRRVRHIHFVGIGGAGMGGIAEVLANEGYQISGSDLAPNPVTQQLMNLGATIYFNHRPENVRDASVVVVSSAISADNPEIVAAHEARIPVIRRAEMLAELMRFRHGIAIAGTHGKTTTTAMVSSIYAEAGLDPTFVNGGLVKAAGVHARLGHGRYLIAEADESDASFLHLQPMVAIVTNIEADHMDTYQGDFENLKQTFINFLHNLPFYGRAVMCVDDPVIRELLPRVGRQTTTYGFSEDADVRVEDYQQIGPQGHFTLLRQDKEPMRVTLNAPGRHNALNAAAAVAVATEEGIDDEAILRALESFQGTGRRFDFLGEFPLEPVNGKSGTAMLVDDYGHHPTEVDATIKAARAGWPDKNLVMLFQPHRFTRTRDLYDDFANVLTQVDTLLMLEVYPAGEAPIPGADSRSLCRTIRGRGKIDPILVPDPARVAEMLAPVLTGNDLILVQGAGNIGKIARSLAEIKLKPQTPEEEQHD
# Method: S. aureus and E. coli Uridine-diphosphate-N-acetvimuramoyl: L-alanine lipase, MurC
# The buffer is prepared from aqueous reagents with the following final concentrations: 83 mM Tris/HCl (pH 8.0), 50 mM MgC12, and 2 mM ATP.
# (§3) Preparation of Enzyme Solution:
# A 1 mg/mL stock solution of MurC is prepared in a buffer consisting of 20 mM Tris/HCl (pH 8.5) with 2.5 μM BME. The stock solution is further diluted with the buffer to give a final enzyme concentration of 100 μg/mL for the E. coli stock solution and 70 μg/mL for the S. aureus stock solution.
# (§4) Preparation of Test Compound Solutions:
# (§5) All test solutions are prepared in DMSO as 10 mg/mL, then diluted with 50 mM Tris/HCl (pH 8.5) to 100 μg/mL.
# (§6) Preparation of Stop Solution:
# The stop solution is prepared by stirring 1 part 4.2% ammonium molydbate in 4N HCl with 2 parts 0.045% malachite green for 30 min.
# In this evaluation, the inhibitory activity of a test compound against MurC, the enzyme which catalyzes the third step of bacterial cell wall bioxynthesis is determined. Experiments are performed by adding 2.5 μl buffer, 2.5 μl 0.5M NH4SO2, 5 μl 2 μM L-Ala, 5 μl enzyme solution and 6.5 μl test compound solution to each well in a 96-well microplate. After a pre-incubation period of 10 mins. at 23° C., 3.75 μl of a 0.75 μM solution of UDP-MurNac is added to each well. Following an incubation period of 10 mins. at 37° C., 210 μl stop solution and 50 μl of a 34% w/v sodium citrate solution are added and color is allowed to develop for 10 mins. at 23° C. (Lanzetta et al., Analytical Biochemistry, 1979, 95) Optical density readings are taken at 660 nm using a Molecular Devices Spectra Max 250 with Soft Max software. Controls are performed using the same procedure and omitting the addition of UDP-MurNac.
# Using these values the IC50 is determined by linear regression analysis.
# staphylococci = test: Minimum inhibitory concentration, microdilution broth method, staphylococci; assay type: cell-based; settings: Staphylococcus aureus, Mueller-Hinton broth, 18-22 hours at 35° C.
# Method: as §1, §2
# [2] = molecular target: E. coli UDP-N-acetylglucosamine enolpyruvoyl transferase, MurA (Escherichia coli, UniProt P0A749); test: biochemical; settings: (E) E. coli enzyme
# Sequence of E. coli UDP-N-acetylglucosamine enolpyruvoyl transferase, MurA (P0A749 whole entry): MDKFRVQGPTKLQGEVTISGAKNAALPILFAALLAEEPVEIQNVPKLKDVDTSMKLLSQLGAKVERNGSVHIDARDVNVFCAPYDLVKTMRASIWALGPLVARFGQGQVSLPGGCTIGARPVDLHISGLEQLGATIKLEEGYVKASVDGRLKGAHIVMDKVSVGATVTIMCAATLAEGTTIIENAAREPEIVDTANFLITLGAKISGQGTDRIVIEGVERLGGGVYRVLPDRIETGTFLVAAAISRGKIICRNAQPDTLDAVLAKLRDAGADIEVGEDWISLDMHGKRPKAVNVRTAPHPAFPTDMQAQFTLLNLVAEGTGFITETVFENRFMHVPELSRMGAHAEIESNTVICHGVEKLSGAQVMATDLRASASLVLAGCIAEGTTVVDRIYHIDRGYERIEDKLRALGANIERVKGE
# Method: Evaluation of the Inhibitory Activity of Test Compounds Against Enzymes which Catalyze Bacterial Cell Wall Biosynthesis
# S. aureus and E. coli UDP-N-acetylglucosamine enolpyruvoyl transferase, MurA
# as §3
# The enzyme solution is prepared by admixing the following: 50 mM Tris/HCl pH 8.0, […] 1 M Tris, 5 mM DTT, […] 1 M DTT, 20% Glycerol 4 ml 50% Glycerol, add water to 10 ml.
# as §6
# A procedure similar to that described by C. […] Experiments are performed by adding a solution of test compound (in a mixture of dimethylsulfoxide and water) and an enzyme solution to a well. After a pre-incubation period of 10 mintues at 37° C., Tris/BME buffer and assay buffer are added. A start point optical density (OD0) reading is taken at 340 nm immediately following the addition of assay buffer. After incubation for 1 hr at 37° C., the stop solution is added and the color is allowed to develop for 30 minutes.
# Streptococci = test: Minimum inhibitory concentration, microdilution broth method, streptococci; assay type: cell-based; settings: S. pneumo GC 1894; Mueller-Hinton broth with 5% horse blood, 18-22 hours at 35° C.
# Method: as §1, §2
# [3] = molecular target: E. coli Enopyruvyl-UPD-N-acetylglucosamine reductase, Mur B (Escherichia coli, UniProt P08373); test: biochemical; settings: (E) E. coli enzyme; for IC50: read-out: MurB IC50 (converted)
# Sequence of E. coli Enopyruvyl-UPD-N-acetylglucosamine reductase, Mur B (P08373 whole entry): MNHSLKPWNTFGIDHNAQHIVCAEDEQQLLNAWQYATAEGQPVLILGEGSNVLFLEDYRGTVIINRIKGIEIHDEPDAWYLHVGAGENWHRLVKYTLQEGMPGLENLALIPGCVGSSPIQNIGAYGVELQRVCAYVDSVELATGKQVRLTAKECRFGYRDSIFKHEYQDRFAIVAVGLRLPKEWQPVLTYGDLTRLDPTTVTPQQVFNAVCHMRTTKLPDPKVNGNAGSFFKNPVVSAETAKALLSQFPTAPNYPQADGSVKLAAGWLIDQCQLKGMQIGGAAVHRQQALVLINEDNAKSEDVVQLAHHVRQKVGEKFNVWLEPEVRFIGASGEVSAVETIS
# Method: S. aureus and E. coli Enopyruvyl-UPD-N-acetylglucosamine reductase, Mur B
# Preparation of Tris/BME buffer:
# Dilute 17.5 uL of aqueous 5 mM BME (2-mercaptoethanol) to 50 mL with 50 mM Tris/HCl (pH 8.0).
# as §3
# Dilute aqueous MurB stock solution (0.94 mg/mL) with 200 parts 50 mM Tris/2-BME buffer.
# Synthesis of Substrate for MurB (MurA Product EP-UDP-GluNAc):
# A mixture of 13 mg UDP-N-acetylglucosamine and 5.5 mg phosphoenolpyruvate are dissolved in 10 mL Tris/BME buffer forming 2 mM concentrations of each reagent in solution.
# Preparation of Assay Buffer:
# The assay buffer is prepared in water from reagents with the following final concentrations: 100 mM Tris/HCl (pH 8.0), 200 μM NADPH, 100 μM MurB substrate, 10 μM 2-mercaptoethanol, and 10 μM KCl.
# Experiments are performed by adding 20 μL of a solution of test compound in a mixture of dimethylsulfoxide and water and 30 μL of enzyme solution to a well. After a pre-incubation period of 20 mins. at 23° C., 50 μL of Tris/BME buffer and 100 μL of assay buffer are added. […] Controls are performed using the same procedure and employing 20 μL of a blank dimethylsulfonide and solvent mixture in place of the test compound solution.
# Using these values, the IC50 for each test compound is determined by linear regression analysis.
# [4] = molecular target: E. coli Uridine-diphosphate-N-acetylmuramoyl-L-alanine: D-glutamate liease, MurD (Escherichia coli, UniProt P14900); test: biochemical; settings: (E) E. coli enzyme
# Sequence of E. coli Uridine-diphosphate-N-acetylmuramoyl-L-alanine: D-glutamate liease, MurD (P14900 whole entry): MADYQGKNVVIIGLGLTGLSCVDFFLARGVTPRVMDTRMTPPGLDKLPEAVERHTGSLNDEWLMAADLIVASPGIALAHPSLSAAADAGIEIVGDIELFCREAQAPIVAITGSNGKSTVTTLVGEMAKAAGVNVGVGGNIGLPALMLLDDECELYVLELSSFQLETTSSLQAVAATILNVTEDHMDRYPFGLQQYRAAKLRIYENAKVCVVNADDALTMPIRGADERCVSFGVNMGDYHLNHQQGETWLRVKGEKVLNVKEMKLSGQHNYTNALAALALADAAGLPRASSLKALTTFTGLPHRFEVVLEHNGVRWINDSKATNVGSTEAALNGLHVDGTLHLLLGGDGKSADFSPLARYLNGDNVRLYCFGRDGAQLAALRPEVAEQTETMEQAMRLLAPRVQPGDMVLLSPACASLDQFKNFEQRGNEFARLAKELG
# Method: S. aureus and E. coli Uridine-diphosphate-N-acetylmuramoyl-L-alanine: D-glutamate liease, MurD
# The buffer is prepared from aqueous reagents with the following final concentrations: 83 mM Tris/HCl (pH 8.0), 50 mM MgCl2, and 2 mM ATP.
# as §3, §4, §5, §6
# In this evaluation, the inhibitory activity of a test compound against MurD, the enzyme which catalyzes the fourth step of bacterial cell wall biosynthesis is determined.
# [5] = E. faecalis GC 2242, read-out: MIC E. faecalis GC 2242
# [6] = E. faecalis GC 4555, read-out: MIC E. faecalis GC 4555
# [7] = S. aureus GC 1131, read-out: MIC S. aureus GC 1131
# [8] = S. aureus GC 4543, read-out: MIC S. aureus GC 4543
# [9] = (E) E. coli enzyme, read-out: MurC IC50 (converted)
Compound,MIC (enterococci; [5]),MIC (enterococci; [6]),MurC IC50 ([1]; (E) E. coli enzyme),MIC (staphylococci; [7]),MIC (staphylococci; [8]),MurA IC50 [2],MIC (Streptococci),IC50 [3],"IC50 ([1]; MurC IC50, (E) E. coli enzyme)",IC50 [2],IC50 [4],"IC50 [1, 9]",MurB IC50 [3],MurD IC50 [4]
O=C1O/C(=C\c2ccc(-c3ccccc3)cc2)C(O)=C1c1cccc2ccccc12 [Example 50],8 µg/mL,32 µg/mL,9 (E) μg/mL,8 µg/mL,4 µg/mL,16 (E) μg/mL,4 µg/mL,,,,,,,
"O=C1O/C(=C\c2ccccc2C(F)(F)F)C(O)=C1c1ccc(-c2ccccc2)cc1 [Example 99, 3-[1.1′-Biphenyl]-4-yl-4-hydroxy-5-{(Z)-[2-(trifluoromethyl)benzylidene]}-5H-furan-2-one]",4 µg/mL,16 µg/mL,,4 µg/mL,2 µg/mL,,0.25 µg/mL,14.7 µM,9.79 µM,9.79 µM,> 61.2 µM,,,
O=C1O/C(=C\c2cc(F)cc(C(F)(F)F)c2)C(O)=C1c1ccc(-c2ccccc2)c(F)c1 [Example 110],1 µg/mL,4 µg/mL,,2 µg/mL,2 µg/mL,,0.25 µg/mL,11.3 µM,,15.8 µM,42.8 µM,20.3 µM,,
CCCc1ccc(-c2ccc(C3=C(O)/C(=C/c4cc(F)cc(C(F)(F)F)c4)OC3=O)cc2)cc1 [Example 111],1 µg/mL,16 µg/mL,,32 µg/mL,16 µg/mL,,0.25 µg/mL,23.5 µM,,> 53.4 µM,> 53.4 µM,> 53.4 µM,,
O=C1O/C(=C\c2cccc(C(F)(F)F)c2Cl)C(O)=C1c1ccc(-c2ccccc2)cc1 [Example 113],1 µg/mL,4 µg/mL,,1 µg/mL,2 µg/mL,,0.25 µg/mL,6.77 µM,,9.03 µM,> 56.5 µM,> 56.5 µM,,
O=C1O/C(=C\c2cccc(C(F)(F)F)c2Cl)C(O)=C1c1ccc(-c2ccccc2)c(F)c1 [Example 114],0.5 µg/mL,2 µg/mL,10 (E) μg/mL,1 µg/mL,1 µg/mL,1 (E) μg/mL,0.25 µg/mL,,,,,,1 (E) μg/mL,16 (E) μg/mL
CCCc1ccc(-c2ccc(C3=C(O)/C(=C/c4cccc(C(F)(F)F)c4Cl)OC3=O)cc2)cc1 [Example 115],0.25 µg/mL,2 µg/mL,,4 µg/mL,4 µg/mL,,0.25 µg/mL,10.3 µM,,10.3 µM,> 51.6 µM,> 51.6 µM,,
CC(C)(C)c1ccc(-c2ccc(C3=C(O)/C(=C/c4cccc(C(F)(F)F)c4Cl)OC3=O)cc2)cc1 [Example 116],4 µg/mL,4 µg/mL,,8 µg/mL,8 µg/mL,,< 0.125 µg/mL,8.02 µM,,6.01 µM,> 50.1 µM,> 50.1 µM,,
CCOc1ccc(-c2ccc(C3=C(O)/C(=C/c4cccc(C(F)(F)F)c4Cl)OC3=O)cc2)cc1 [Example 117],8 µg/mL,32 µg/mL,,64 µg/mL,32 µg/mL,,0.5 µg/mL,14.4 µM,,20.5 µM,> 51.3 µM,> 51.3 µM,,
O=C1O/C(=C\c2cc(C(F)(F)F)ccc2F)C(O)=C1c1ccc(-c2ccccc2)cc1 [Example 118],16 µg/mL,32 µg/mL,,16 µg/mL,16 µg/mL,,4 µg/mL,42.2 µM,,35.2 µM,> 58.6 µM,44.6 µM,,
O=C1O/C(=C\c2cc(C(F)(F)F)ccc2F)C(O)=C1c1cccc(-c2ccccc2)c1 [Example 121],8 µg/mL,16 µg/mL,,4 µg/mL,2 µg/mL,,0.5 µg/mL,16.4 µM,,21.1 µM,,21.1 µM,,
O=C1O/C(=C\c2cccc(C(F)(F)F)c2)C(O)=C1c1ccc(-c2ccccc2)cc1 [Example 130],8 µg/mL,4 µg/mL,8 (E) μg/mL,4 µg/mL,4 µg/mL,17 (E) μg/mL,0.5 µg/mL,22 µM,,,,,,
